According to ChEMBL document CHEMBL1909046, “DrugMatrix in vitro pharmacology data”:

Experiments:
[1] = DRUGMATRIX: Sodium/nucleoside co-transporter radioligand binding (ligand: nitrobenzylthioinosine); assay type: cell membranes, Cavia porcellus, Dunkin-Hartley, Cerebral cortex, Membrane; conditions: Not Active = under 50% inhibition at 10 µM
[2] = molecular target: T1, Alpha-1A adrenergic receptor (Rattus norvegicus, UniProt P43140); test: DRUGMATRIX: Alpha-1A adrenergic receptor radioligand binding (ligand: prazosin); assay type: cell membranes, Wistar, Submaxillary gland, Membrane; conditions: Not Active = under 50% inhibition at 10 µM
T1 sequence (P43140 whole entry): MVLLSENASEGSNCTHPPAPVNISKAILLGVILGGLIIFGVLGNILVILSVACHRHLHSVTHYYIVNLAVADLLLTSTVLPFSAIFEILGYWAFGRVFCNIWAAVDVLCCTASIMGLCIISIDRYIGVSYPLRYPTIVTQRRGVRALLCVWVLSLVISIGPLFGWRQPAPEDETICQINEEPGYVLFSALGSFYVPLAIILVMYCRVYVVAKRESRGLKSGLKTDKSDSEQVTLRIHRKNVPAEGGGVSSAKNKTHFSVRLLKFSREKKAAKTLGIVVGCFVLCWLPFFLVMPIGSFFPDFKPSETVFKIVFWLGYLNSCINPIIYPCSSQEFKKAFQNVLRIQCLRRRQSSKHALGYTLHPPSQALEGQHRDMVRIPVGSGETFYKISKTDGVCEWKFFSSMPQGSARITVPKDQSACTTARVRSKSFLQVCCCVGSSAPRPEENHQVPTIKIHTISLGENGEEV

[3] = molecular target: T2, Alpha-1D adrenergic receptor (Homo sapiens, UniProt P25100); assay type: cell membranes, HEK293, Membrane; conditions: hek293; note: in other assays of this panel Not Active means under 50% inhibition at 10 µM
T2 sequence (P25100 whole entry): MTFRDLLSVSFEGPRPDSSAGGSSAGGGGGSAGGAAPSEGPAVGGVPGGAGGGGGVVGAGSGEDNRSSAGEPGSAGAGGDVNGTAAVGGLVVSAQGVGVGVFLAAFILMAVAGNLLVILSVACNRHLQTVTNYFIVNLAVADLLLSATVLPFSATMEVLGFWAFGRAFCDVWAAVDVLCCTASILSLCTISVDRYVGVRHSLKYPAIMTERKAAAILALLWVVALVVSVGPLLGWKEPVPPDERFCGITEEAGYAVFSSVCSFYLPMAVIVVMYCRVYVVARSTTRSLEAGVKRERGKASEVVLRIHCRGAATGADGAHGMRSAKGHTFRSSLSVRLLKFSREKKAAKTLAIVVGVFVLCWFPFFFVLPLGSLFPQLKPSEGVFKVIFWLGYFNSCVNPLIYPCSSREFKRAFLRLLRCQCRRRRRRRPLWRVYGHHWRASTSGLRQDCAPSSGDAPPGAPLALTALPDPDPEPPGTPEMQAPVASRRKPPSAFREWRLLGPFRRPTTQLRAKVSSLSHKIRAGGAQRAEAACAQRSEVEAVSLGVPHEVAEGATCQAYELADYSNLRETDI

[4] = molecular target: Beta-3 adrenergic receptor (Homo sapiens, UniProt P13945); test: DRUGMATRIX: Adrenergic beta3 radioligand binding (ligand: [125I] Cyanopindolol); assay type: cell membranes, HEK293, Membrane; conditions: hek293; Not Active = under 50% inhibition at 10 µM
Sequence of Beta-3 adrenergic receptor (P13945 whole entry): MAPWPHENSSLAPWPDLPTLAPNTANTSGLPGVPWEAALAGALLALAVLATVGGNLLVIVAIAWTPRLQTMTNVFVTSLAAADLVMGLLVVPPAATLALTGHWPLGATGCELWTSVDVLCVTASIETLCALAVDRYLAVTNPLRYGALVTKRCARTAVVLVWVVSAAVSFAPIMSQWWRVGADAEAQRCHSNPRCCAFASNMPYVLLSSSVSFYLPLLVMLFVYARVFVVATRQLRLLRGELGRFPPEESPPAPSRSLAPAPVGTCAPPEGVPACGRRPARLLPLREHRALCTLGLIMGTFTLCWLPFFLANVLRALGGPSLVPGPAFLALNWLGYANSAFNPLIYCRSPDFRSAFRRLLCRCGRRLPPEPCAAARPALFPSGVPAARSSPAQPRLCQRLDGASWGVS

Calcitonin receptor = molecular target: T3, Calcitonin receptor (Homo sapiens, UniProt P30988); assay type: cell membranes, Membrane; conditions: t47d; note: in other assays of this panel Not Active means under 50% inhibition at 10 µM
T3 sequence (P30988 whole entry): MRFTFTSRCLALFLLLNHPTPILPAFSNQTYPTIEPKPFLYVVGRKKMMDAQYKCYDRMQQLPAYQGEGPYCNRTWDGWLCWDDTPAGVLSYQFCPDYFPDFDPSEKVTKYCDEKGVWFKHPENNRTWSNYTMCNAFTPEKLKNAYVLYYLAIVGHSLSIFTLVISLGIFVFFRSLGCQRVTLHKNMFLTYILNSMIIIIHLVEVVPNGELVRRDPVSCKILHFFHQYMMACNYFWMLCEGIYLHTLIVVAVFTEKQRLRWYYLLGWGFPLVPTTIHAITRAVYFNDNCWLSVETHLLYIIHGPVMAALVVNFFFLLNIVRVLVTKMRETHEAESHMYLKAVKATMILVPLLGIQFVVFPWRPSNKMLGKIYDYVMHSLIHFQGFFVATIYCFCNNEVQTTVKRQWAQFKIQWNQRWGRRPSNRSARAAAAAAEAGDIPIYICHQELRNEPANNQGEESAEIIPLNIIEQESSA

[5] = molecular target: Prostaglandin G/H synthase 1 (Homo sapiens, UniProt P23219); test: biochemical; assay type: tissue-based, Platelet; conditions: platelet;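 note: inhibition of COX-1 enzyme activity, with arachidonic acid supplied as substrate; in other assays of this panel Not Active means under 50% inhibition at 10 µM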
Sequence of Prostaglandin G/H synthase 1 (P23219 whole entry): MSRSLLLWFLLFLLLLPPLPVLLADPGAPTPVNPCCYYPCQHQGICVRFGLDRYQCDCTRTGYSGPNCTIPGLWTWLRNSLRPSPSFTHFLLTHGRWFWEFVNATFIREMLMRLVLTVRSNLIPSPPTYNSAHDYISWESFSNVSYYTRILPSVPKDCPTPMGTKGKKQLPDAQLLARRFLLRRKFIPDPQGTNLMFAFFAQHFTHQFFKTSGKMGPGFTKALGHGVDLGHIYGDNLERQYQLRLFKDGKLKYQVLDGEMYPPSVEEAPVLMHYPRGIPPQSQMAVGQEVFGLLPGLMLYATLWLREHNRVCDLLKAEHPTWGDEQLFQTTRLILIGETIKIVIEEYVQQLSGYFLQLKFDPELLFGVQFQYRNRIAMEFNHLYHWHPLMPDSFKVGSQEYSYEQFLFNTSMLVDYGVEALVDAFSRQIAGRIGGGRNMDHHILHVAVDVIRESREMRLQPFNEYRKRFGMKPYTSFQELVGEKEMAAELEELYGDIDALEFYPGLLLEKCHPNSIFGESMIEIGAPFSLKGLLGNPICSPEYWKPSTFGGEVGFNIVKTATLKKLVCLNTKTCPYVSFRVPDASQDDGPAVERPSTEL

D(4) dopamine receptor = molecular target: T4, D(4) dopamine receptor (Homo sapiens, UniProt P21917); test: DRUGMATRIX: Dopamine D4.2 radioligand binding (ligand: [3H] Spiperone); assay type: cell membranes, CHO-K1, Membrane; conditions: cho-k1; Not Active = under 50% inhibition at 10 µM
T4 sequence (P21917 whole entry): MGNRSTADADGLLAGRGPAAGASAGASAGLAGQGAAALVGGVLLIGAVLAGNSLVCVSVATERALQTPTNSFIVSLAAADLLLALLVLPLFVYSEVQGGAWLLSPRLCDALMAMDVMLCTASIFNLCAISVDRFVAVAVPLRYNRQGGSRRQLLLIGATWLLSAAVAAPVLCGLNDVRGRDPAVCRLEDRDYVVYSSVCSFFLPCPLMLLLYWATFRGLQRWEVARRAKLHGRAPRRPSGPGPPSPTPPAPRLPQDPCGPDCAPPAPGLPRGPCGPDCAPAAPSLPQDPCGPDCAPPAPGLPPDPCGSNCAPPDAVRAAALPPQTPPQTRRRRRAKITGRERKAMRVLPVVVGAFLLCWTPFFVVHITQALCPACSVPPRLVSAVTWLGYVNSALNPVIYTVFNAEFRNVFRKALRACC

Glycine receptor = Glycine receptor (Rattus norvegicus, UniProt P22771+P24524+P07727+P20781); assay type: cell membranes, Wistar, Spinal cord, Membrane; note: in other assays of this panel Not Active means under 50% inhibition at 10 µM
[6] = DRUGMATRIX: Phosphodiesterase PDE4 enzyme inhibition (substrate: [3H]cAMP + cAMP); conditions: u-937; Not Active = under 50% inhibition at 10 µM
Cathepsin G = molecular target: T5, Cathepsin G (Homo sapiens, UniProt P08311); assay type: tissue-based; conditions: neutrophil
T5 sequence (P08311 whole entry): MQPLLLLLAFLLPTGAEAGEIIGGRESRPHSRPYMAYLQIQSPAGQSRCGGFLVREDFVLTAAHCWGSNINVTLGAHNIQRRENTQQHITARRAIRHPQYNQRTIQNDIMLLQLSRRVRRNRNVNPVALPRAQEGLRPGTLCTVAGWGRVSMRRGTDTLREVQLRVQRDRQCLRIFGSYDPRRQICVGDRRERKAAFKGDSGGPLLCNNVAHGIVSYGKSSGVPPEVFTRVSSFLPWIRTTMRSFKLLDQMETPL

[7] = molecular target: Protein kinase C alpha type (Homo sapiens, UniProt P17252); assay type: cell-based; conditions: sf9
[8] = molecular target: Epidermal growth factor receptor (Homo sapiens, UniProt P00533); test: DRUGMATRIX: Protein Tyrosine Kinase, EGF Receptor enzyme inhibition (substrate: Poly(Glu:Tyr)); assay type: cell-based, Insect cells; conditions: insect cells; Not Active = under 50% inhibition at 10 µM
Sequence of Epidermal growth factor receptor (P00533 whole entry): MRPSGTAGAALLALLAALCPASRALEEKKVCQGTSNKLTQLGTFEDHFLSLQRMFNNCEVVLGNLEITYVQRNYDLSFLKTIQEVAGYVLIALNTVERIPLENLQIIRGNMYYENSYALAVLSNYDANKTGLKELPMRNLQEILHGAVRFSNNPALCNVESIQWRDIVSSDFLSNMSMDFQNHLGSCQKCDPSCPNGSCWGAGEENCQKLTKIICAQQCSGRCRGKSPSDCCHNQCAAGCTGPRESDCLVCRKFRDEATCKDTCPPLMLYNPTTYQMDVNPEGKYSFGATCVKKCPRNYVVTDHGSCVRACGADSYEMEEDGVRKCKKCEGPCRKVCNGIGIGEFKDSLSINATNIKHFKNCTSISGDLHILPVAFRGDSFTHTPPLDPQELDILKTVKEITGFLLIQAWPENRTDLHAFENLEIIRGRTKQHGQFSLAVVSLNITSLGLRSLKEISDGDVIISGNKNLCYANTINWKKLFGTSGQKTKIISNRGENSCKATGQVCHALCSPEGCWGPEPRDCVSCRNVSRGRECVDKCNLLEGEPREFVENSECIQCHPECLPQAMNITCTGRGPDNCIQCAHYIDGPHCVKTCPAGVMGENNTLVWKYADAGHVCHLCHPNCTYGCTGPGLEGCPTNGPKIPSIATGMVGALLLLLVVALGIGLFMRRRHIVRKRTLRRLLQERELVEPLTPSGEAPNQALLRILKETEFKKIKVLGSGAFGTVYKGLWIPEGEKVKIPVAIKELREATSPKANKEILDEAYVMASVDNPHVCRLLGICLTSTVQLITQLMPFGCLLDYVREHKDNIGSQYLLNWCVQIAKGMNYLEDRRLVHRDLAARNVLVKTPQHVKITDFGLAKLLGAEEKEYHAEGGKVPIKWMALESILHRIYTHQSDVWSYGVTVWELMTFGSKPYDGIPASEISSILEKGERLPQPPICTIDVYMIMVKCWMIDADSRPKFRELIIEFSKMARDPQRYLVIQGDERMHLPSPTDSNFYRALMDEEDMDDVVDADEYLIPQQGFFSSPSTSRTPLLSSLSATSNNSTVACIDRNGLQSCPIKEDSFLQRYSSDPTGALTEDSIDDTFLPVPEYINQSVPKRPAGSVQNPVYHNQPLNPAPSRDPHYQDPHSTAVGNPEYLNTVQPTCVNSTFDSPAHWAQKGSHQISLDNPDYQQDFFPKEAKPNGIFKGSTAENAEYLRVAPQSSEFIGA

CN(N=O)C(=O)N[C@@H](C=O)[C@@H](O)[C@H](O)[C@H](O)CO [STREPTOZOCIN]
Not Active: IC50 [1] | Ki [1] | IC50 [2] | IC50 [3] | IC50 [4] | IC50 (Calcitonin receptor) | IC50 [5] | IC50 (D(4) dopamine receptor) | IC50 (Glycine receptor) | IC50 [6] | Ki [6] | IC50 (Cathepsin G) | IC50 [7] | IC50 [8]
